Source: patent US9364454B2, “Anti-inflammatory actions of neuroprotectin D1/protectin D1 and its natural stereoisomers” (The Brigham and Women's Hospital, Inc., priority 2005, dated 2016)
“Also recorded” adds a separate entry of the source.

Experiments:
FVB male mice = assay: Acute inflammatory exudates: zymosan A murine peritonitis (leukocyte infiltration); type: in vivo, mouse; details: for anti-inflammatory potency in vivo, PMN infiltration (in words): dose range tested (FIG. 6), lavage at 2 h; for activity on PMN infiltration at higher doses / dose dependence (in words): higher doses (10 ng, 100 ng); for kind of joint anti-inflammatory action of PD1 and RvE1: 10 ng/mouse i.p. of either or both, 2 h
Protocol: Peritonitis was carried out using 6-8 week-old FVB male mice (Charles River Laboratories) fed laboratory Rodent Diet 5001 (Purina Mills) that were anesthetized with isoflurane, and compounds to be tested were administered intraperitoneally. […] Each compound tested or vehicle alone was suspended in 1 μl ethanol and mixed in sterile saline (120 μl). After intraperitoneal injections (either 2 or 4 hours of acute inflammation), the mice were sacrificed in accordance with the Harvard Medical Area Standing Committee on Animals protocol no. 02570, and peritoneal lavages were collected rapidly and placed in an ice bath (4° C.) for enumeration, differential counts, and further analysis.

[1] = system: human PMN transmigration across endothelial cells; assay: Human PMN transmigration across HMEC monolayers, LTB4-induced; type: cell-based; details: compound 15 min, LTB4 10^-8 M 90 min
Protocol: PMN were freshly isolated from whole blood obtained by venipuncture from healthy human donors (who denied taking medication for 2 weeks prior to donation; BWH protocol no. 88-02642) and anti-coagulated with acid citrate dextrose as in (40, 41). Briefly, plasma and mononuclear cells were removed by aspiration from the buffy coat after centrifugation (400 g; 20 min) at room temperature. Histopaque (density 1.077) was from Sigma-Aldrich (St. Louis, Mo.). RBCs were sedimented using 2% gelatin, and residual RBCs were removed by lysis in ice-cold NH4Cl buffer. The cell suspensions were >90% PMN as determined by light microscopic evaluation. PMN were suspended at 5×10^7 cells/ml in HBSS with 10 mM Hepes, pH 7.4, and without Ca^2+ or Mg^2+ (Sigma-Aldrich, St. Louis, Mo.). PMN were used within 2 hours of their isolation.
Human Microvascular Endothelial Cells (HMEC; a gift from Francisco Candal of the Centers for Disease Control, Atlanta, Ga.) were obtained as primary cultures. For preparation of experimental HMEC monolayers, confluent endothelial cells were grown on 0.33 cm^2 ring-supported polycarbonate filters (5 μm pore size; Costar Corp., Cambridge, Mass.) in the apical-to-basolateral direction. Cells were grown for ˜1 week prior to transmigration experiments.
Transmigration was conducted essentially as in ref. (41). PMN were incubated with either vehicle-containing buffer or compound for 15 minutes at 37° C. A chemotactic gradient was established by placing HMEC inserts that had been washed in HBSS with Ca^2+ and Mg^2+ (denoted +/+) in 10^−8M LTB4 in the lower chambers. Neutrophils (10^6 cells) were added to 50 μl HBSS +/+ in the upper chambers and cells were incubated at 37° C. for 90 min. Transmigrated PMN were quantified by assessing the PMN azurophilic marker myeloperoxidase and a calibration curve. PMN were lysed by the addition of Triton X-100 to a final concentration of 0.5%. The samples were acidified with citrate buffer (final concentration 100 mM, pH 4.2). An aliquot of each sample was added to an equal volume of ABTS solution (1 mM ABTS [2′-azino-bis(3-ethylbenzo-thiazoline-6-sulfonic acid)], 0.03% H2O2, 100 mM sodium citrate buffer, pH 4.2) in a 96-well plate. The resulting color was monitored using a plate reader at 405 nm and a calibration curve for cell number.

CC/C=C\C[C@H](O)C#C/C=C/C=C/[C@H](O)C/C=C\C/C=C\CCC(=O)O [15,16-dehydro-PD1]
PMN infiltration (in words) (FVB male mice; 10 ng/mouse, 4 h after injection (FIG. 9)): retained activity in vivo; also recorded: slightly less potent than the native PD1; also recorded: reduced PMN infiltration; also recorded: Statistically different from *zymosan A-injected mice; also recorded: less potent | recruitment of monocytes and lymphocytes to exudates (in words) (FVB male mice; peritonitis, differential counts): increased the non-phlogistic recruitment of monocytes and lymphocytes

CC/C=C\C[C@H](O)/C=C/C=C\C=C\[C@@H](O)C/C=C\C/C=C\CCC(=O)O [Compound I, 10S,17S-dihydroxy-docosa-4Z,7Z,11E,13Z,15E,19Z-hexaenoic acid]
rank order of potency (FVB male mice; 0.1 ng dose): Compound VI>>PD1>10S,17S-DT (the double dioxygenation product)>the Δ15-trans-PD1>>Compound V | activity on PMN infiltration (in words) (FVB male mice; 0.1 ng dose, compared to PD1): not active | activity on PMN infiltration (in words) (FVB male mice; 1 ng/mouse dose): did display some activity | rank order of potency (FVB male mice; 1-10 ng dose): PD1≈PD1 methyl ester>>Δ15-trans PD1>10S,17S-diHDHA (isomer I) | anti-inflammatory potency in vivo, PMN infiltration (in words) (FVB male mice): nor did it carry potent actions; also recorded: substantially less potent; also recorded: PD1 (Compound II)>>10S,17S-diHDHA (Compound I); also recorded: possesses some anti-inflammatory activity in vivo, albeit proved to be much less potent than natural or synthetic PD1 | activity on PMN infiltration at higher doses / dose dependence (in words) (FVB male mice): blocked PMN infiltration, but it was less potent than PD1; also recorded: did not increase with higher doses in a statistically significant fashion

CC/C=C\C[C@H](O)/C=C/C=C/C=C/[C@H](O)C/C=C\C/C=C\CCC(=O)O [Compound III, 10R,17S-dihydroxy-docosa-4Z,7Z,11E,13E,15E,19Z-hexaenoic-acid]
effect on LTB4-induced PMN transmigration (in words) [1]: possesses little bioactivity in vitro or in vivo | effect on LTB4-induced PMN transmigration (in words) ([1]; listed as 415-trans-PD1): essentially inactive | effect on LTB4-induced PMN transmigration (in words) ([1]; listed as Δ15-trans isomer of PD1): did not block PMN transmigration in vitro | rank order of potency (FVB male mice; 0.1 ng dose): Compound VI>>PD1>10S,17S-DT (the double dioxygenation product)>the Δ15-trans-PD1>>Compound V | activity on PMN infiltration (in words) (FVB male mice; 1 ng/mouse dose): substantially less potent | rank order of potency (FVB male mice; 1-10 ng dose): PD1≈PD1 methyl ester>>Δ15-trans PD1>10S,17S-diHDHA (isomer I) | anti-inflammatory potency in vivo, PMN infiltration (in words) (FVB male mice): possesses little bioactivity in vitro or in vivo

CC/C=C\C[C@H](O)/C=C/C=C\C=C\[C@H](O)C/C=C\C/C=C\CCC(=O)O [Compound IV, 10R,17S-dihydroxy-docosa-4Z,7Z,11E,13Z,15E,19Z-hexaenoic-acid]
activity on PMN infiltration (in words) (FVB male mice; 1 ng/mouse dose): essentially equipotent | activity on PMN infiltration at higher doses / dose dependence (in words) (FVB male mice): did not increase potency in a dose-dependent fashion

CC/C=C\C[C@@H](O)\C=C/C=C/C=C/[C@@H](O)C/C=C\C/C=C\CCC(=O)O [Compound V, 10S,17R,-dihydroxy-docosa-4Z,7Z,11E,13E,15Z,19Z-hexaenoic-acid]
rank order of potency (FVB male mice; 0.1 ng dose): Compound VI>>PD1>10S,17S-DT (the double dioxygenation product)>the Δ15-trans-PD1>>Compound V | anti-inflammatory potency in vivo, PMN infiltration (in words) (FVB male mice): essentially without activity | anti-inflammatory potency in vivo, PMN infiltration (in words) (FVB male mice; listed as compound V): essentially inactive in vivo

CC/C=C\C[C@H](O)\C=C/C=C/C=C/[C@@H](O)C/C=C\C/C=C\CCC(=O)O [Compound VI, 10S,17S-dihydroxy-docosa-4Z,7Z,11E,13E,15Z,19Z-hexaenoic-acid]
rank order of potency (FVB male mice; 0.1 ng dose): Compound VI>>PD1>10S,17S-DT (the double dioxygenation product)>the Δ15-trans-PD1>>Compound V | anti-inflammatory potency in vivo, PMN infiltration (in words) (FVB male mice): the most potent of these isomers in vivo | anti-inflammatory potency in vivo, PMN infiltration (in words) (FVB male mice; listed as compound VI): carries bioactivity | anti-inflammatory potency in vivo, PMN infiltration (in words) (FVB male mice; listed as isomer VI): ≧PD1

CC/C=C\C[C@H](O)\C=C/C=C/C=C/[C@H](O)C/C=C\C/C=C\CCC(=O)OC [PD1 methyl ester]
rank order of potency (FVB male mice; 1-10 ng dose): PD1≈PD1 methyl ester>>Δ15-trans PD1>10S,17S-diHDHA (isomer I)

CC[C@@H](O)/C=C/C=C\C[C@@H](O)/C=C/C=C/C=C\[C@@H](O)CCCC(=O)O [RvE1, 5S,12R,18R-trihydroxy-6Z,8E,10E,14Z,16E-eicosapentaenoic acid, reference compound]
kind of joint anti-inflammatory action of PD1 and RvE1 (FVB male mice): additive rather than synergistic | kind of joint anti-inflammatory action of PD1 and RvE1 (FVB male mice; listed as resolvin E1): additive | PMN infiltration, PD1 and RvE1 administered together (in words) (FVB male mice; 10 ng/mouse i.p., exudates at 2 h): reduced the infiltration of PMN

CCC=CCC(O)C=CC=CC=CC(O)CC=CCC=CCCC(=O)OC (centres unmarked) [methyl ester of Compound VI]
anti-inflammatory potency in vivo, PMN infiltration (in words) (FVB male mice): potent regulator of PMN infiltration
